In ChEMBL document CHEMBL1201862, “PubChem BioAssay data set” (2004):
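Cultured in 96-well plates, cells were exposed to test compound for 48 hours across five concentrations. GI50 = concentration required for 50% inhibition of growth.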 Calls of active or inactive are those of the source. Cut-off read from the data, not from the text of the source: active = GI50 up to about 1.1 µM and inactive = higher.

Legend:
Experiment in all cases: NCI tumour cell line growth inhibition, 48 h
786-0 = tested on: 786-0
ACHN = tested on: ACHN
COLO 205 = tested on: COLO 205
HL-60 = tested on: HL-60
HOP-92 = tested on: HOP-92
KM12 = tested on: KM12
MOLT-4 = tested on: MOLT-4
OVCAR-3 = tested on: OVCAR-3
SF-268 = tested on: SF-268
SF-295 = tested on: SF-295
SN12C = tested on: SN12C
SNB-75 = tested on: SNB-75
SR = tested on: SR
UACC-257 = tested on: UACC-257
A549 = tested on: A549
CAKI-1 = tested on: CAKI-1

| Structure (SMILES) | GI50 (786-0) | GI50 (ACHN) | GI50 (COLO 205) | GI50 (HL-60) | GI50 (HOP-92) | GI50 (KM12) | GI50 (MOLT-4) | GI50 (OVCAR-3) | GI50 (SF-268) | GI50 (SF-295) | GI50 (SN12C) | GI50 (SNB-75) | GI50 (SR) | GI50 (UACC-257) | GI50 (A549) | GI50 (CAKI-1) |
| --- | --- | --- | --- | --- | --- | --- | --- | --- | --- | --- | --- | --- | --- | --- | --- | --- |
| O=C1CCC2(O)c3ccccc3C2Cc2ccccc21 (configuration not stated) | > 100 µM (inactive) | > 100 µM (inactive) | > 100 µM (inactive) | > 100 µM (inactive) | 70.1 µM (inactive) | > 100 µM (inactive) | > 100 µM (inactive) | > 100 µM (inactive) | > 100 µM (inactive) | > 100 µM (inactive) | > 100 µM (inactive) | 63.8 µM (inactive) | > 100 µM (inactive) | > 100 µM (inactive) |  |  |
| CCCCCCCCCCCCC(CC)CCCCC(=O)O (configuration not stated) | 31.8 µM (inactive) | > 100 µM (inactive) | > 58.3 µM (inactive) | > 63.1 µM (inactive) | > 73.3 µM (inactive) | > 100 µM (inactive) | 27 µM (inactive) | > 100 µM (inactive) | > 100 µM (inactive) | > 100 µM (inactive) | > 83 µM (inactive) | > 100 µM (inactive) | > 53.2 µM (inactive) | > 100 µM (inactive) | > 100 µM (inactive) | > 100 µM (inactive) |
| COC(=O)CCCCCOS(=O)(=O)c1ccc(C)cc1 | > 100 µM (inactive) | > 100 µM (inactive) | > 100 µM (inactive) | > 100 µM (inactive) | > 100 µM (inactive) | > 100 µM (inactive) | 78.7 µM (inactive) | > 100 µM (inactive) | > 100 µM (inactive) | > 100 µM (inactive) | > 100 µM (inactive) | > 100 µM (inactive) | > 100 µM (inactive) | > 100 µM (inactive) | > 100 µM (inactive) |  |
| COc1cc2c(c(OC)c1OC)-c1ccc(SC)c(=O)cc1[C@@H](NCc1cccc(C#N)c1)CC2 | 0.0332 µM (active) | 0.047 µM (active) | 0.0202 µM (active) | 0.0419 µM (active) | 0.0401 µM (active) | 0.00528 µM (active) | 0.0328 µM (active) | 0.0168 µM (active) | 0.0164 µM (active) | 0.0207 µM (active) | 0.0313 µM (active) | 0.00516 µM (active) | 0.00414 µM (active) | 0.0448 µM (active) | 0.0345 µM (active) | 0.0075 µM (active) |
| O=C(/C=C\c1cccc2ccccc12)c1ccc(Br)cc1 | 19.2 µM (inactive) | 17.4 µM (inactive) | 31.1 µM (inactive) | 15 µM (inactive) | 36.5 µM (inactive) | 15.1 µM (inactive) | 31 µM (inactive) | 18.4 µM (inactive) | 23.7 µM (inactive) | 22.4 µM (inactive) | 34.8 µM (inactive) | 21.7 µM (inactive) |  | 22.3 µM (inactive) | > 100 µM (inactive) | 33 µM (inactive) |
| N/N=C(/C(=O)Nc1cccc(Cl)c1)C(C(=O)c1ccc(O)cc1O)C1OC(=O)c2ccccc21 (configuration not stated) | > 100 µM (inactive) | > 100 µM (inactive) | > 100 µM (inactive) | > 100 µM (inactive) |  | > 100 µM (inactive) | 31.8 µM (inactive) | > 100 µM (inactive) | 51.4 µM (inactive) | 85.9 µM (inactive) | > 100 µM (inactive) |  | 40.4 µM (inactive) | > 100 µM (inactive) | > 100 µM (inactive) |  |
| CCOC(=O)c1nc(-c2ccccc2)oc1OCC | > 100 µM (inactive) |  | > 100 µM (inactive) | 49.9 µM (inactive) |  | > 100 µM (inactive) | 60.7 µM (inactive) | > 100 µM (inactive) | > 100 µM (inactive) | > 100 µM (inactive) | > 100 µM (inactive) | > 100 µM (inactive) |  |  | > 100 µM (inactive) |  |
| COc1ccc(C(=C[N+](=O)[O-])c2ccc(OC)cc2)cc1 | 20.8 µM (inactive) | 30.1 µM (inactive) | 9.79 µM (inactive) | 5.19 µM (inactive) | 25.4 µM (inactive) | 4.5 µM (inactive) | 3.17 µM (inactive) | 14.1 µM (inactive) | 20 µM (inactive) | 5.96 µM (inactive) | 24 µM (inactive) | 1.87 µM (inactive) | 4.38 µM (inactive) | 8.59 µM (inactive) | 13.6 µM (inactive) | 11.6 µM (inactive) |
| CCOC(=O)C1Cc2ccc3c4c(ccc(c24)C1)CC(C(=O)OCC)C3 | > 100 µM (inactive) | > 100 µM (inactive) | > 100 µM (inactive) | > 100 µM (inactive) | > 100 µM (inactive) | > 100 µM (inactive) | > 100 µM (inactive) | > 100 µM (inactive) | > 100 µM (inactive) | > 100 µM (inactive) | > 100 µM (inactive) | > 100 µM (inactive) | > 100 µM (inactive) | > 100 µM (inactive) | > 100 µM (inactive) |  |
| CCOC(=O)C1=C(Nc2ccccc2)SC/C1=N\NC(=O)Cc1ccccc1 | > 100 µM (inactive) | > 100 µM (inactive) | > 100 µM (inactive) | > 100 µM (inactive) | > 100 µM (inactive) | > 100 µM (inactive) | > 100 µM (inactive) | > 100 µM (inactive) | > 100 µM (inactive) | > 100 µM (inactive) | > 100 µM (inactive) | > 100 µM (inactive) | > 100 µM (inactive) | > 100 µM (inactive) | > 100 µM (inactive) | > 100 µM (inactive) |
| CC1=C(SC#N)S(=O)(=O)N(c2ccccc2)C(C)=C1SC#N | 49.4 µM (inactive) | 44 µM (inactive) |  | 29 µM (inactive) | 3.63 µM (inactive) | 60.4 µM (inactive) | 20 µM (inactive) | > 10 µM (inactive) | 69.2 µM (inactive) | 22.6 µM (inactive) | 56.6 µM (inactive) | 27 µM (inactive) | 24.4 µM (inactive) | 32 µM (inactive) | 40.7 µM (inactive) | 45.2 µM (inactive) |
| O=C(NC12CC3CC(CC(C3)C1)C2)C(=O)c1c[nH]c2ccccc12 | 13.1 µM (inactive) | 15.5 µM (inactive) | 18.7 µM (inactive) | 15.5 µM (inactive) | 15.1 µM (inactive) | 13.9 µM (inactive) | 12.2 µM (inactive) | 17 µM (inactive) | 16.6 µM (inactive) | 10.2 µM (inactive) | 16.5 µM (inactive) | > 10 µM (inactive) | 17.8 µM (inactive) | 12.9 µM (inactive) | 16.3 µM (inactive) |  |
| CCCCOP1(=O)CC(C)=C(Cl)C(C)(OC)C1 (configuration not stated) | > 100 µM (inactive) | > 100 µM (inactive) | > 100 µM (inactive) | 26.9 µM (inactive) | 43.7 µM (inactive) | > 100 µM (inactive) | 34.4 µM (inactive) | > 100 µM (inactive) | > 100 µM (inactive) | > 100 µM (inactive) | > 100 µM (inactive) | > 100 µM (inactive) | 31.8 µM (inactive) | > 100 µM (inactive) | > 100 µM (inactive) |  |
